# Data reported in publication PMC8333425, “Discovery of a dual Ras and ARF6 inhibitor from a GPCR endocytosis screen” (Nature Communications, 2021).
# Where “and” joins values, the source holds several entries; their conditions need not be identical. Equal entries are not always repeated.
# Experiments:
# [1] = tested on: PI3K/Akt; test: PI3K/Akt BRET sensor (Akt (PH)-RlucII / rGFP-CAAX), EGFR-mediated; format: cell-based, human
# Description: HEK293SL cells were seeded at a density of 7.5 × 10^5 cells per 100-mm dish and 24 h later, transiently transfected as such. For receptor internalization experiments, cells were transfected with 0.12 μg AT1R-RlucII, B2R-RlucII, or β2AR-RlucII and 0.48 μg of either rGFP-CAAX (to assess removal from the PM) or rGFP-FYVE (to assess accumulation in the endosomes). For β-arrestin recruitment assays, cells were transfected with 0.48 μg of receptor-YFP along with 0.12 μg of β-arrestin-RlucII. For β-arrestin/AP-2 binding experiments, cells were transfected with 1 μg Flag-AT1R, 1 μg β2-Adaptin-YFP, and 0.12 μg β-arrestin2-RlucII. For G protein activation, cells were transfected with 3 μg of sp-Flag-AT1R along with either 4.5 μg of the Gαq-polycistronic BRET sensor or 0.24 μg of the Gαi3-RlucII and 0.6 μg of GFP10-Gγ2 and Gβ1 sensors or 0.12 μg PKN-RBD-RlucII and 0.48 μg of rGFP-CAAX. For PKC activation, cells were transfected with 3 μg of sp-Flag-AT1R and 0.18 μg of the PKC sensor. For GTPase activation experiments, cells were transfected with 1 μg Flag-AT1R, 0.48 μg of rGFP-CAAX, and either 0.12 μg of GGA3-PBD-RlucII, PAK-CRIB-RlucII or Raf-RBD-RlucII. For biosensor validation experiments, cells were additionally transfected with 500 ng Flag-K-Ras-WT, Flag-K-Ras-G12V, Flag-K-Ras-SOS-CAAX, HA-ARF6-WT, HA-ARF6-T27N, Myc-Rac1-WT, Myc-Rac1-Q61L or Myc-Rac1-T17N. For PI3K/Akt activation experiments, cells were transfected with 0.48 μg of rGFP-CAAX and 0.12 μg of Akt (PH)-RlucII. After 18 h of transfection, the media was replaced and cells were divided for subsequent experiments. Cells were detached and seeded onto poly-L-ornithine-coated 96-well flat white bottom plates (BrandTech Scientific) at a density of 2.5 × 10^4 cells per well in media. The next day, cells were washed once with Tyrode’s buffer (140 mM NaCl, 2.7 mM KCl, 1 mM CaCl2, 12 mM NaHCO3, 5.6 mM D-glucose, 0.5 mM MgCl2, 0.37 mM NaH2PO4, 25 mM HEPES, pH 7.4) and left in Tyrode’s buffer. For kinetics of β-arrestin recruitment or β-arrestin binding to receptor and AP-2 experiments, cells were serum starved for 30 min, pretreated with 21 (50 µM) or Barbadin (100 µM) for 30 min, stimulated with 100 nM AngII or 1 µM BK and BRET signals were monitored at indicated times using a Victor X Light plate reader (PerkinElmer). Coelenterazine H (final concentration of 5 µM) was added 3–5 min prior to BRET measurements. Filter set was 460/80 nm and 535/30 nm for detecting the RlucII Renilla luciferase (donor) and YFP (acceptor) light emissions, respectively. The BRET ratio was determined by calculating the ratio of the light emitted by YFP over the light emitted by the RlucII. For G protein activation, cells were serum starved, pretreated with compounds for 30 min, stimulated with 100 nM AngII for 2 min (Gαq, Gαi3, and Rho sensors) or 5 min (PKC sensor). For the kinetics of GTPase and PI3K/Akt activation, cells were serum starved, pretreated with 21 (50 µM) or Wortmannin (200 nM) for 30 min, stimulated with ligand (100 nM AngII or 100 ng/ml EGF) and BRET signals were monitored at indicated times. For concentration-response curves, cells were serum-starved, pretreated with various concentrations of compounds for 30 min and stimulated with ligand (100 nM AngII, 1 µM BK, 10 µM Isoproterenol (Iso) or 100 ng/ml EGF) in Tyrode’s buffer for 30 min for receptor internalization, 10 min for ARF6, 2 min for Rac and Rho activation and 5 min for Ras activation and PI3K/Akt activation. BRET signals were monitored using a Synergy2 (BioTek) microplate reader and coelenterazine 400a (final concentrations of 5 µM) added 3–5 min prior to BRET measurements. Filter set was 410/80 nm and 515/30 nm for detecting the RlucII Renilla luciferase (donor) and rGFP/GFP10 (acceptor) light emissions, respectively. The BRET ratio was determined by calculating the ratio of the light emitted by rGFP/GFP10 over the light emitted by the RlucII.
# [2] = biological target: H-Ras (Homo sapiens, UniProt P01112); test: In vitro mant-GTP exchange assay, purified H-Ras with 40 mM EDTA; format: biochemical; parameters: the cDNA of H-Ras (full length) was obtained by RT-PCR of HEK293SL; GST (N); made in house; host or cells: E. coli BL21
# Description: Ras activity was assessed in a 384-well black bottom plate using the mant-GTP exchange factor assay that measures the uptake of the fluorescent nucleotide analog N-methylanthraniloyl-GTP (mant-GTP) into GTPases. For Ras activation, 2X exchange buffer, 1.66 μg of purified pGEX-6P-1-H-Ras or pGEX-6P-1-K-Ras-WT or pGEX-6P-1-K-Ras-Y32A were added per well in presence of DMSO, different concentrations of Rasarfin (as indicated) or 50 µM of compounds 21.4, 21.7, or 21.8. Using the Infinite 200 Pro plate reader (Tecan) with filters set at 360 nm and 440 nm for detecting the excitation and emissions, respectively, and temperature set at 20 °C, 5 readings were recorded every 5 s before the addition of either H2O, 40 mM EDTA or 0.66 μg purified SOS1. The fluorescence of mant-GTP uptake was measured every 30 sec for 30 min and quantified as the delta relative fluorescence units (RFU), which was calculated as the RFU post-addition minus the 5 averaged RFU pre-addition, per condition.
# H-Ras, sequence (P01112 whole entry): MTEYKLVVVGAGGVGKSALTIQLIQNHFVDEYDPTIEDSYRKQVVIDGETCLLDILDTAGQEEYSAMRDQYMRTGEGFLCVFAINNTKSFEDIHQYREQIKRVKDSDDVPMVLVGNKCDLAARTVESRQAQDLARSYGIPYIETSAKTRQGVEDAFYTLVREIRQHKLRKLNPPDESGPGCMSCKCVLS
structure (smiles),measurement,setting,value
CC(C)C(=O)N1CCN(c2ccc(NC(=O)c3cc4ccccc4o3)cc2Cl)CC1 [Compound 21],IC50,"[1]; Homo sapiens, read-out: potency for inhibition of EGFR-mediated Akt (BRET assay)",4 to 5 µM
same,EGF-promoted BRET,[1]; Log [Comp 21] (M) -4.30103,0.039 and 0.07107 and 0.056
same,EGF-promoted BRET,[1]; Log [Comp 21] (M) -5.32288,0.1533 and 0.2873 and 0.2883
same,EGF-promoted BRET,[1]; Log [Comp 21] (M) -6,0.6727 and 0.6567 and 0.6163
same,EGF-promoted BRET,[1]; Log [Comp 21] (M) -6.32288,0.7007 and 0.6398 and 0.6137
same,EGF-promoted BRET,[1]; Log [Comp 21] (M) -7,0.7123 and 0.6372 and 0.6493
same,mant-GTP binding to purified H-Ras promoted by EDTA,[2],also inhibited mant-GTP binding promoted by EDTA
